What all share (test): biochemical
Parameters in all cases: KINOMEscan competition binding, DNA-tagged kinase against immobilised ligand, qPCR read-out
Settings in all cases: read-out: Percent Control

In test [1] the target is CDKL1 (Homo sapiens, UniProt Q00532). The protocol:
(§1) The KINOMEscan^TM kinase assays[65] were performed by Eurofins DiscoverX Corporation. For each kinase, the assay relies on the ability of the tested compound to compete against an immobilised ligand for binding to the DNA-tagged kinase. RT-qPCR is then used to measure the quantity of kinase molecules bound to the immobilised ligand, which is decreased if the tested compound competed with the kinase-ligand interaction. An 11-point 3-fold serial dilution of IDX compound was prepared in 100% DMSO at 100× final test concentration and subsequently diluted to 1× in the assay. […]

Test [2] addresses ULK3 (Homo sapiens, UniProt Q6PHR2). The protocol:
as §1

Test [3] addresses MKNK1 (Homo sapiens, UniProt Q9BUB5). The protocol:
as §1

Test [4] has as its target CDK13 (Homo sapiens, UniProt Q14004). The protocol: as §1
Test [5] addresses DCLK3 (Homo sapiens, UniProt Q9C098). Here is the method:
as §1

Test [6] concerns the target FGFR1 (Homo sapiens, UniProt P11362). Here is the method: as §1
Test [7] addresses PKN2 (Homo sapiens, UniProt Q16513). The protocol: as §1
Test [8] deals with STK36 (Homo sapiens, UniProt Q9NRP7). The protocol: as §1
Test [9] deals with CDK17 (Homo sapiens, UniProt Q00537). The protocol: as §1
Test [10] deals with RIOK2 (Homo sapiens, UniProt Q9BVS4). Here is the method:
as §1

Test [11] concerns the target T1, TYK2(JH2domain-pseudokinase) (Homo sapiens, UniProt P29597).
T1 construct: JH2 domain pseudokinase
Here is the method: as §1

Test [12] concerns the target RPS6KB1 (Homo sapiens, UniProt P23443). Here is the method: as §1
Test [13] concerns the target PRKG2 (Homo sapiens, UniProt Q13237). The protocol:
as §1

Test [14] concerns the target WNK2 (Homo sapiens, UniProt Q9Y3S1). The protocol:
as §1

Test [15] has as its target KIT-autoinhibited (Homo sapiens, UniProt P10721). The protocol:
as §1

Test [16] addresses TYRO3 (Homo sapiens, UniProt Q06418). Here is the method: as §1
For test [17], the target named is GAK (Homo sapiens, UniProt O14976). Here is the method:
as §1

Test [18] concerns the target MAPK13 (Homo sapiens, UniProt O15264). The protocol: as §1
The target in test [19] is CHEK2 (Homo sapiens, UniProt O96017). The protocol:
as §1

The target in test [20] is SRMS (Homo sapiens, UniProt Q9H3Y6). Here is the method:
as §1

PRKG2, sequence (Q13237 whole entry): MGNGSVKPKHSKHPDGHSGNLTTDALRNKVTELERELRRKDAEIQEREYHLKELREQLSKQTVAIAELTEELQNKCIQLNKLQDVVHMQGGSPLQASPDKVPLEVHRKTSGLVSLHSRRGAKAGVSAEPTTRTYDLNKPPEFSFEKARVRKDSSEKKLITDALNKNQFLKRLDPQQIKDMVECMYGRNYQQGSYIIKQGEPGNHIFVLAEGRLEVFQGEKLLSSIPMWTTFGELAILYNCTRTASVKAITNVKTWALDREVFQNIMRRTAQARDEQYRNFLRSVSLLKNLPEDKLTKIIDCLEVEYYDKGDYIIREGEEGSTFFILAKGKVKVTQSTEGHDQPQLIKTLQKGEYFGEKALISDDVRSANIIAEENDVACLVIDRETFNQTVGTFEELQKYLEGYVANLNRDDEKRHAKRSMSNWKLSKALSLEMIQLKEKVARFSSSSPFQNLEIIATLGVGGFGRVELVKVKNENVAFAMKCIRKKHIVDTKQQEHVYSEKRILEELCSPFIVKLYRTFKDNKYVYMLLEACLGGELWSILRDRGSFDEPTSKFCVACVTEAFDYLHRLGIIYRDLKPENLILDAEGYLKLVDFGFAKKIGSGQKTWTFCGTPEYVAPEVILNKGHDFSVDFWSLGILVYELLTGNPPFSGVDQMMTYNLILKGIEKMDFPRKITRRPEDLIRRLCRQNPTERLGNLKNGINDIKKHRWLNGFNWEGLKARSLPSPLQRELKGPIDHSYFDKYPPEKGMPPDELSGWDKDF
GAK, sequence (O14976 whole entry): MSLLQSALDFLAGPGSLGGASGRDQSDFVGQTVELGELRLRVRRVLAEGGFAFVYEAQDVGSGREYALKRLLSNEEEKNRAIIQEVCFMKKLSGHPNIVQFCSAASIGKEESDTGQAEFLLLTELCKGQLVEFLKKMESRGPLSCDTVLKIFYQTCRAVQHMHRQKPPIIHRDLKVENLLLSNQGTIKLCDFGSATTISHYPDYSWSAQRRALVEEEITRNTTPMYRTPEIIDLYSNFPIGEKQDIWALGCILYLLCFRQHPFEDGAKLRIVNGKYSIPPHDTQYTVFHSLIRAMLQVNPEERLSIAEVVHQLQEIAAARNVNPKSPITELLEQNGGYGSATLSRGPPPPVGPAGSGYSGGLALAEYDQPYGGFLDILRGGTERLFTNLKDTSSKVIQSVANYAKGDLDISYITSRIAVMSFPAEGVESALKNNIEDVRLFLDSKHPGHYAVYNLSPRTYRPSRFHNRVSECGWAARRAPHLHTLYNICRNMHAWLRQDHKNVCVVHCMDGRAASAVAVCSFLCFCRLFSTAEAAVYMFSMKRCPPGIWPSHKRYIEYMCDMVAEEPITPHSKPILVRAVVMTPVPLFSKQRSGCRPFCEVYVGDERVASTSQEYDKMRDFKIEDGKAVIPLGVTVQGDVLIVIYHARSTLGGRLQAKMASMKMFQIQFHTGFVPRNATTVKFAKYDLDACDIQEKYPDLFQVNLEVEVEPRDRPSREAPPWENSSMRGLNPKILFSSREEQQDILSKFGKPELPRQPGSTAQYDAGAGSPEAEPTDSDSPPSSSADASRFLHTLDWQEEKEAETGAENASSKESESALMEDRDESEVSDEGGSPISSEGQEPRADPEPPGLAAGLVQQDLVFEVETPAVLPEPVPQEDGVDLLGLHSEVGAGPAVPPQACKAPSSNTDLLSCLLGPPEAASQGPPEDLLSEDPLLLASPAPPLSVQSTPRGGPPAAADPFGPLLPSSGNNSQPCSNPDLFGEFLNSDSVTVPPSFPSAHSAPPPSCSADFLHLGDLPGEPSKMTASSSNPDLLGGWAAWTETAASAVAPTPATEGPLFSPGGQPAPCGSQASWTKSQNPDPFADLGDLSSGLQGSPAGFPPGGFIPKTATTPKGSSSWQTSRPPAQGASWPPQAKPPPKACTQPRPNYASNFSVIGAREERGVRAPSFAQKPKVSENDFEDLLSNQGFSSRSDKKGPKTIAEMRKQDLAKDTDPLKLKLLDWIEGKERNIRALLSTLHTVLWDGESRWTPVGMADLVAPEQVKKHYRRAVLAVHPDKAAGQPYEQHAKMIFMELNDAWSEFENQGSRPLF
CDK17, sequence (Q00537 whole entry): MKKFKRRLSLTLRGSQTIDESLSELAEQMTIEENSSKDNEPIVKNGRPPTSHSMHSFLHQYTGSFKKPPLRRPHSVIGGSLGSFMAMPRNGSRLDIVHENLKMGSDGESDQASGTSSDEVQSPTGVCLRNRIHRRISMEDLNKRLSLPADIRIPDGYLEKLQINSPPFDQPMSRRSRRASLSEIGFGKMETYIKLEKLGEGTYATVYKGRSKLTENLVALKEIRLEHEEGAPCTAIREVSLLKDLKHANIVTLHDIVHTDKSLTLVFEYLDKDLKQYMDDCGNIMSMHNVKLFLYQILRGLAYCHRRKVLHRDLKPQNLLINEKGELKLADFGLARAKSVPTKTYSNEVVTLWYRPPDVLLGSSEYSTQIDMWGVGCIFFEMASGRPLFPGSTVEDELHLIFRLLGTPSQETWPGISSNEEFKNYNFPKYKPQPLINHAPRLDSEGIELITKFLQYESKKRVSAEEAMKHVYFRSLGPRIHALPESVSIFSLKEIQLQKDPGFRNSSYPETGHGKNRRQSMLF
T1 sequence (P29597 whole entry, the tested form may be a part): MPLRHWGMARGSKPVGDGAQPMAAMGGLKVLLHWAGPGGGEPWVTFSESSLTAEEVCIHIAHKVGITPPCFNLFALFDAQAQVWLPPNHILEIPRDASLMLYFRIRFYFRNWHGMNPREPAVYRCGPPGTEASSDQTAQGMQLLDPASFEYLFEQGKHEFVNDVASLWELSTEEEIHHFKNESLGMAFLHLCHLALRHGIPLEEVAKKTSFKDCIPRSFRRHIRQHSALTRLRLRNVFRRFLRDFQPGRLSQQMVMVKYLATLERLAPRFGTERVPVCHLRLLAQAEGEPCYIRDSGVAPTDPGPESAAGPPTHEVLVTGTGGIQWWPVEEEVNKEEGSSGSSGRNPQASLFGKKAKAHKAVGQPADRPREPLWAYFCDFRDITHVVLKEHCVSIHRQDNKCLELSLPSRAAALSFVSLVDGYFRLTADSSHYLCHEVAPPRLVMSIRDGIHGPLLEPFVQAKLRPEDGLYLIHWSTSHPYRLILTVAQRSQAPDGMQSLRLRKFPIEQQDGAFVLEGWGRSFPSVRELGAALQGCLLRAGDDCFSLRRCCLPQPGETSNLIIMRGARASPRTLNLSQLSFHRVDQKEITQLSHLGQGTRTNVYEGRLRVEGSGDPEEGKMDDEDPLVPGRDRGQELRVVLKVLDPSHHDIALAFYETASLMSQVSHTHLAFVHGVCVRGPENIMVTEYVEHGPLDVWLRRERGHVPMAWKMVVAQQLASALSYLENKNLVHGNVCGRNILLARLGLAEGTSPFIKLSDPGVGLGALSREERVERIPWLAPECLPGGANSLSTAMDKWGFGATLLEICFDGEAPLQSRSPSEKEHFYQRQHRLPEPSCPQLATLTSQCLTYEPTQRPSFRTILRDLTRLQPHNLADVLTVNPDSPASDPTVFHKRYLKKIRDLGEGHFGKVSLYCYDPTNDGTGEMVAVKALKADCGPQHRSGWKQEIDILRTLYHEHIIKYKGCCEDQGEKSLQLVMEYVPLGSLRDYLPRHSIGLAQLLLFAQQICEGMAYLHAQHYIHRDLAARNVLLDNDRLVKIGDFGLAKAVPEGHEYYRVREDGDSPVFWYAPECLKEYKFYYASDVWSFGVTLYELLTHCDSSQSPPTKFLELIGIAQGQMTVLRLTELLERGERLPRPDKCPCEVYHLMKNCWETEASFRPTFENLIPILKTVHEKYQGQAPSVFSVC
ULK3, sequence (Q6PHR2 whole entry): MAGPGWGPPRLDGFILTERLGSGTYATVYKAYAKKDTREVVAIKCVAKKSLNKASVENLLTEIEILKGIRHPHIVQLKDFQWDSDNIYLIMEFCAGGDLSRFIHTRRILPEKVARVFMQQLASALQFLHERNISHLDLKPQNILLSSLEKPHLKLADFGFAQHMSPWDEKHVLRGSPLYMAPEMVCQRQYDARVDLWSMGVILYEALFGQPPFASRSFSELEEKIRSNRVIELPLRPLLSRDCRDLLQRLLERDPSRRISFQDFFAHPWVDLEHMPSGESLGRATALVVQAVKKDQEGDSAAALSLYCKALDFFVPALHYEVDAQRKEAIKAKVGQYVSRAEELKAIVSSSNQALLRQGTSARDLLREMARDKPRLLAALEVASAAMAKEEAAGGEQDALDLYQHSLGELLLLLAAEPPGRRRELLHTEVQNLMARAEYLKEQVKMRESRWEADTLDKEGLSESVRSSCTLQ
RIOK2, sequence (Q9BVS4 whole entry): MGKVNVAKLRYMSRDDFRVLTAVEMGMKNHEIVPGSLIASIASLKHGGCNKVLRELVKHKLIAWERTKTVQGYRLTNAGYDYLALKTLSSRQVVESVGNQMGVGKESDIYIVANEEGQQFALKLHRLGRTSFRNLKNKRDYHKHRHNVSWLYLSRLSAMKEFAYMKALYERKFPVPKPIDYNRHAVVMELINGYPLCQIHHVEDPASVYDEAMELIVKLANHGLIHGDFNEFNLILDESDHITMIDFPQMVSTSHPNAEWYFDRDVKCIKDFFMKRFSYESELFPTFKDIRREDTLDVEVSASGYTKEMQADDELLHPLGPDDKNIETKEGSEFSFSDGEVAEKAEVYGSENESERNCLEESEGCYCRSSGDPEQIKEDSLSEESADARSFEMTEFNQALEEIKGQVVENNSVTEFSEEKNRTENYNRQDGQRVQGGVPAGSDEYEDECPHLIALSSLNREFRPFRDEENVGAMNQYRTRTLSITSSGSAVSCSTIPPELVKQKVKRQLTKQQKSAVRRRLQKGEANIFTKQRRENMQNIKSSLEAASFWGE

Take `Oc1ccc(C2=Cc3ccc(O)cc3OC2)cc1` [compound 1, idronoxil]: the remaining binding at 10 µM in [1] worked out at 77%; in test [2], 78%; in test [3] it was 55%; in test [4], 100%; in [5], 92%; in test [6], 92%. The remaining binding at 10 µM in [7] is 70%; in [8] it was 78%; in test [9], 97%; in test [10] it was 82%; in test [11] it was 8.3%; in [12], 84%. In addition, the remaining binding at 10 µM in test [13] worked out at 71%; in [14] it was 51%; in test [15] it was 60%; in [16], 66%; in [17], 58%; in [18], 100%. Moreover, the remaining binding at 10 µM in [19] came out at 67%; in [20] it was 68%.

The record behind these values is article PMC10507085, “Pharmacological inhibition of TBK1/IKKε blunts immunopathology in a murine model of SARS-CoV-2 infection” (Nature Communications, 2023).
